Results on nine compounds are retold here after US10259781B2, “Imaging agents” (THE REGENTS OF THE UNIVERSITY OF MICHIGAN, priority 2012, dated 2019).

Data set [1] has as its system cardiac sympathetic neurons (NET-mediated neuronal uptake). Put plainly: Isolated working rat heart model: neuronal uptake and clearance kinetics. Particulars: isolated working rat heart (perfused, ex vivo), read-out: clearance rate from sympathetic neurons, major half-time (T1/2) (converted). How it is done:
(§1) The radiotracer was infused into the heart for 10 minutes to measure the tracer uptake rate into cardiac sympathetic neurons (Kup, shown in units of ml/min/g tissue wet). Then, the heart was infused with normal heart perfusate to measure the tracer clearance rate from the heart over 2 hours.
(§2) Experiments were conducted to test ^11C-phenoxyethylguanidine (PEG), e.g., to establish baseline values for the NET transport rate (Kup, expressed in units of mL perfusate/min/g wet) and the clearance rate from sympathetic neurons (T1/2, expressed in units of hours).

Data set [2] has as its system cardiac sympathetic neurons. Described as above. The procedure:
as §1, §2

Data set [3] in a line: Metabolic breakdown in monkey plasma (reverse-phase HPLC of venous blood samples). The format is in vivo, rhesus macaque monkey. Conditions: monkey plasma. How it is done:
In some of the microPET studies, venous blood samples (e.g., n=6) were drawn to assess the metabolic breakdown of [^18F]4F-MHPG in plasma (see Table 1). Plasma was processed for injection onto a reverse-phase HPLC system equipped with a radiation detector. The percentages of intact parent tracer and radiolabeled metabolites were determined as a function of time. In this system, [^18F]4-MHPG has a retention time Rt of approximately 11.2 minutes while the main polar radiometabolite formed has an Rt of approximately 7.9 minutes.

A short description of a further data set: Biodistribution in rats. Particulars: 30 minutes after injection, n=5. Format: in vivo, rat. How it is done:
During the development of embodiments of the technology, data were collected from bioevaluation studies of [^18F]4F-MHPG. […]
During the development of embodiments of the technology provided herein, the biodistribution of [^18F]4F-MHPG into the organs of rats was assessed. In particular, four time points (Table 3) were collected and used to derive human radiation absorbed dose estimates using the OLINDA/EXM 1.0 software package (see, e.g., Stabin et al. (2005) “OLINDA/EXM; the second-generation personal computer software for internal dose assessment in nuclear medicine”, J Nucl Med. 46: 1023-7). […] These values were entered into the Dynamic Bladder model of OLINDA/EXM, assuming a 4.0-hour void interval. Organs with the highest absorbed dose estimates included the urinary bladder wall (0.666 rad/mCi), […] (0.221 rad/mCi), small intestine (0.201 rad/mCi), and the heart wall (0.201 rad/mCi). An ‘effective dose’ of 0.091 rem/mCi was estimated for [^18F]4F-MHPG. Under United States Federal Regulations governing research with a new radiopharmaceutical (21 CFR § 361.1), the maximum allowable radiation absorbed dose to an individual organ (other than the gonads) is 5 rad. Considering the maximum estimated absorbed dose (urinary bladder wall; 0.666 rad/mCi), initial PET studies in human subjects could use a maximum of 7.5 mCi of [^18F]4F-MHPG. This would correspond to an ‘effective dose’ of 0.68 rem.

The subject of data set [4] is cardiac sympathetic nerve terminals. Nature of the data set: MicroPET imaging and myocardial kinetics (compartmental modeling, Patlak graphical analysis) in monkeys. Format: in vivo, rhesus macaque monkey. Particulars: indirect evidence from myocardial kinetics in monkeys. How it is done:
A series of microPET imaging studies were performed in the macaque model to assess image quality and tracer kinetics. In most of these the time course of the metabolic breakdown of [^18F]4F-MHPG in plasma was also determined. The studies are summarized below in Table 1.
During the development of embodiments of the technology provided herein, the kinetics of [^18F]4F-MHPG in monkey hearts was assessed using either compartmental modeling or Patlak graphical analysis to obtain quantitative measures of regional cardiac sympathetic nerve density.
For some analyses, a simplified compartmental model that assumed irreversible trapping inside nerve terminals was used to estimate the model rate constants K1 (ml/min/g), k2 (min^−1), k3 (min^−1), and a blood volume fraction BV (dimensionless) (see, e.g., FIG. 7). In both the control studies and DMI blocking studies, the model quickly converged to a single global minimum in just a few iterations of the nonlinear regression analysis (FIG. 8). […] This aggregate parameter provides a stable measure of cardiac nerve density that declined in a dose-dependent manner with increasing DMI dose (FIG. 9, “Kinetic modeling”).
For some analyses, Patlak graphical analysis was used, which uses a mathematical transformation of the kinetic data Cp(t) and Ct(t) to generate a Tatlak plot′ having a characteristic linear phase (see, e.g., Patlak and Blasberg (1985) “Graphical evaluation of blood-to-brain transfer constants from multiple-time uptake data. Generalizations.” J Cereb Blood Flow 5: 584-90). The slope of the linear portion of a Patlak plot, Kp (ml/min/g), provides an alternate estimate of the ‘net uptake rate constant’ Ki (ml/min/g). Thus, for the model structure used (FIG. 7), the slope of the Patlak plot is given by Kp≈(K1k3)/(k2+k3).
During the development of embodiments of the technology provided herein, the myocardial kinetics of [^18F]4F-MHPG was assessed using Patlak graphical analysis and metabolite-corrected plasma input functions. In this example, the Patlak plot is highly linear (r^2=1.00) and the estimated Patlak slope Kpatlak=0.252 ml/min/g. […] As such, regional estimates of the Patlak slope from Patlak analysis of the kinetics of [^18F]4F-MHPG serve as robust measures of regional cardiac sympathetic nerve density in patients with heart diseases.

In the case of `N=C(N)NCCOc1ccccc1` [PEG, ^11C-phenoxyethylguanidine], the half-life in data set [1] is 5.7 h. Further, in data set [2], the “neuronal uptake rate / NET transport rate (Kup)” value is reported as 5.37 mL/min/g wet.

In the case of `N=[11C](N)NCCOc1ccc(F)c(O)c1` [^11C-4F-MHPEG, ^11C-4-fluoro-meta-phenoxyethylguanidine], in data set [2], the “neuronal uptake rate / NET transport rate (Kup)” value was 2.66 mL/min/g wet and the “vesicular trapping / retention” value is reported as “effectively trapped inside storage vesicles”.

`N=[11C](N)NCC(O)c1cccc(O)c1` (centres unmarked) [GMO, [^11C]guanyl-meta-octopamine, reference compound]: in data set [3], the “T1/2 for metabolic breakdown in plasma” value is reported as “approximately 13 minutes”.

As for `N=C(N)NCCc1ccc(F)c(O)c1` [[^11C]4F-MHPG] [^11C-4-fluoro-meta-hydroxyphenethylguanidine], in the data set “Biodistribution in rats”, the “tissue concentration, adrenal medulla” value is recorded as 0.56 ± 0.21 percentage of the injected dose per gram; the “tissue concentration, blood” value is 0.08 ± 0.01 percentage of the injected dose per gram; the “tissue concentration, left ventricle” value is recorded as 1.77 ± 0.27 percentage of the injected dose per gram; the “tissue concentration, liver” value is on record as 1.22 ± 0.18 percentage of the injected dose per gram. In the data set “Biodistribution in rats”, the “tissue concentration, lung” value is on record as 0.56 ± 0.15 percentage of the injected dose per gram; the “tissue concentration, muscle” value is 0.07 ± 0.01 percentage of the injected dose per gram; the “tissue concentration, spleen” value is 0.52 ± 0.10 percentage of the injected dose per gram.

With `N=C(N)NCCc1ccc([18F])c(OS(=O)(=O)O)c1` [sulfur conjugate of [^18F]4-MHPG], the “activity at the norepinephrine transporter (NET)” value in data set [4] is “inactive”.

On to `N=C(N)NCCOc1cccc(O)c1` [MHPEG, ^11C-meta-hydroxy-phenoxyethylguanidine], for which, in data set [2], the “neuronal uptake rate / NET transport rate (Kup)” value amounted to 5.37 mL/min/g wet and the “vesicular trapping / retention” value is “complete trapping”.

In the case of `N=[11C](N)NCCOc1ccc(O)c(F)c1` [^11C-3F-PHPEG, ^11C-3-fluoro-para-hydroxy-phenoxyethylguanidine], in data set [2], the “neuronal uptake rate / NET transport rate (Kup)” value amounted to 4.26 mL/min/g wet.

Regarding `N=C(N)NCC1COc2ccc(O)cc2O1` (centres unmarked) [^11C-7H-GOX, ^11C-7-hydroxy-guanoxan], in data set [2], the “retention time, compared between the two ring hydroxylated guanoxan analogs” value was “longer retention time” and the “uptake, compared between the two ring hydroxylated guanoxan analogs” value is listed as “more rapid uptake”.

As to `N=C(N)NCCOc1ccc(F)cc1` [4F-PEG, ^11C-4-fluoro-phenoxyethylguanidine], the half-life in data set [1] was 3.5 h. For the same compound, in data set [2], the “neuronal uptake rate / NET transport rate (Kup)” value stood at 7.25 mL/min/g wet.
